This assay addresses C5AR1 (Homo sapiens (Human), UniProt P21730). Nature of the assay: In vitro assay: PathHunter beta-arrestin antagonist assay in CHO-K1 C5AR1 beta-arrestin cell line, stimulated with C5a agonist. Conditions: read-out: C5aR IC50; CHO-K1 C5AR1 beta-arrestin cell line; 1-10 nM C5a agonist; geometric mean values.
Chain of C5AR1 (P21730 whole entry): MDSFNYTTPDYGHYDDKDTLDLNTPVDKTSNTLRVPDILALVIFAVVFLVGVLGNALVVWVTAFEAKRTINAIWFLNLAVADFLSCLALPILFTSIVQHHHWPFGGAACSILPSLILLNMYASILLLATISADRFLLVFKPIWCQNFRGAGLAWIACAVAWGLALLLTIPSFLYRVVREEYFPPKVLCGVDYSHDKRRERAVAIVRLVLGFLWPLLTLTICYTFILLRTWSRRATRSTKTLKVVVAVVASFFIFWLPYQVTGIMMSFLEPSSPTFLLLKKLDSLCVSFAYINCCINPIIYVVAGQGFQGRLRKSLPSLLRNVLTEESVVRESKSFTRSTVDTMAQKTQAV
Description: 5 μl Antagonist at 6-fold end concentration or DMSO control is added to assay medium and subsequently 5 μl 1-10 nM C5a agonist at 6 fold end concentration. Cells are centrifuged for 1 min at 1000 rpm and incubated for 1.5 hour in at 37° C. Plates are equilibrated at room temperature for several minutes before adding 12 μI/well Detection Reagent (PathHunter Detection Kit, DiscoverX, Cat #93-0001). Plates are centrifuged for 1 min at 1000 rpm and incubated for 45 minutes at RT before being measured on a Fluostar Optima, BMG Labtech. IC50 values are calculated from a serial dilution range of antagonist using inhouse software and given in nmol/l.
The calculated IC50 values may fluctuate depending on the daily cellular assay performance. […] Average IC50 values from several measurements are given as geometric mean values.
Usually IC50 stands for the concentration that gives 50% inhibition. Consider `Cc1cccc(F)c1N1CCC(N2Cc3ccccc3N(Cc3ccccc3OC3COC3)C2=O)CC1` [Example 51, 3-[1-(2-Fluoro-6-methyl-phenyl)-piperidin-4-yl]-1-[2-(oxetan-3-yloxy)-benzyl]-3,4-dihydro-1H-quinazolin-2-one], for which the IC50 turned out to be 0.113 µM.

Take `COc1ccccc1CN1C(=O)N(C2CCN(c3c(C)cccc3C)CC2)Cc2ccccc21` [Example 36, 3-[1-(2,6-Dimethyl-phenyl)-piperidin-4-yl]-1-(2-methoxy-benzyl)-3,4-dihydro-1H-quinazolin-2-one]: the IC50 turned out to be 0.199 µM.

As for `Cc1cccc(F)c1N1CCC(N2Cc3ccccc3N(Cc3ccccc3OCCO)C2=O)CC1` [Example 50, 3-[1-(2-Fluoro-6-methyl-phenyl)-piperidin-4-yl]-1-[2-(2-hydroxy-ethoxy)-benzyl]-3,4-dihydro-1H-quinazolin-2-one], the IC50 was found to be 2.56 µM.

As for `Cc1cccc(F)c1N1CCC(N2Cc3ccccc3N(Cc3cnccc3C(F)(F)F)C2=O)CC1` [Example 67, 3-[1-(2-Fluoro-6-methyl-phenyl)-piperidin-4-yl]-1-(4-trifluoromethyl-pyridin-3-ylmethyl)-3,4-dihydro-1H-quinazolin-2-one], the IC50 is 0.046 µM.

`COc1ccccc1N1CCC(N2Cc3cccc(OC)c3N(Cc3ccccc3C(F)(F)F)C2=O)CC1` [Example 4, 8-Methoxy-3-[1-(2-methoxy-phenyl)-piperidin-4-yl]-1-(2-trifluoromethyl-benzyl)-3,4-dihydro-1H-quinazolin-2-one]: the IC50 came to 0.944 µM.

With `COc1ccccc1N1CC[C@@H](N2Cc3cccc(OC)c3N(Cc3ccccc3C(F)(F)F)C2=O)C1` [Example 10, 8-Methoxy-3-[(R)-1-(2-methoxy-phenyl)-pyrrolidin-3-yl]-1-(2-trifluoromethyl-benzyl)-3,4-dihydro-1H-quinazolin-2-one], the IC50 came out at 1.87 µM.

As to `Cc1cccc(C)c1N1CC[C@@H](N2Cc3ccccc3N(Cc3ccccc3C(F)(F)F)C2=O)C1` [Example 18, 3-[(R)-1-(2,6-Dimethyl-phenyl)-pyrrolidin-3-yl]-1-(2-trifluoromethyl-benzyl)-3,4-dihydro-1H-quinazolin-2-one], the IC50 is 0.028 µM.

As for `COc1cccc(F)c1N1CCC(N2Cc3ccccc3N(Cc3ccccc3C(F)(F)F)C2=O)CC1` [Example 7, 3-[1-(2-Fluoro-6-methoxy-phenyl)-piperidin-4-yl]-1-(2-trifluoromethyl-benzyl)-3,4-dihydro-1H-quinazolin-2-one], the IC50 was determined as 0.058 µM.

As for `COc1cccc(F)c1N1CC[C@H](N2Cc3ccccc3N(Cc3ccccc3C(F)(F)F)C2=O)C1` [Example 17, 3-[(S)-1-(2-Fluoro-6-methoxy-phenyl)-pyrrolidin-3-yl]-1-(2-trifluoromethyl-benzyl)-3,4-dihydro-1H-quinazolin-2-one], the IC50 was found to be 0.437 µM.

With `Cc1cccc(F)c1N1CCC(N2Cc3cncnc3N(Cc3ccccc3C(F)(F)F)C2=O)CC1` [Example 64, 3-[1-(2-Fluoro-6-methyl-phenyl)-piperidin-4-yl]-1-(2-trifluoromethyl-benzyl)-3,4-dihydro-1H-pyrimido[4,5-d]pyrimidin-2-one], the IC50 came out at 0.782 µM.

In the case of `COc1cccc(C)c1N1CCC(N2Cc3ccccc3N(Cc3ccccc3C(F)(F)F)C2=O)CC1` [Example 23, 3-[1-(2-Methoxy-6-methyl-phenyl)-piperidin-4-yl]-1-(2-trifluoromethyl-benzyl)-3,4-dihydro-1H-quinazolin-2-one], the IC50 is 0.032 µM.

As for `Cc1cccc(F)c1N1CCC(N2Cc3ccccc3N(Cc3ncccc3C(F)(F)F)C2=O)CC1` [Example 69, 3-[1-(2-Fluoro-6-methyl-phenyl)-piperidin-4-yl]-1-(3-trifluoromethyl-pyridin-2-ylmethyl)-3,4-dihydro-1H-quinazolin-2-one], the IC50 was determined as 0.013 µM.

Consider `Cc1cccc(F)c1N1CC(N2Cc3ccccc3N(Cc3ccccc3C(F)(F)F)C2=O)C1` [Example 81, 3-[1-(2-Fluoro-6-methyl-phenyl)-azetidin-3-yl]-1-(2-trifluoromethyl-benzyl)-3,4-dihydro-1H-quinazolin-2-one], for which the IC50 was determined as 1.28 µM.

`Cc1cccc(F)c1N1CCC(N2Cc3ccccc3N(Cc3cnccc3C(C)C)C2=O)CC1` [Example 61, 3-[1-(2-Fluoro-6-methyl-phenyl)-piperidin-4-yl]-1-(4-isopropyl-pyridin-3-ylmethyl)-3,4-dihydro-1H-quinazolin-2-one]: the IC50 came out at 0.036 µM.

On to `N#Cc1cccc(F)c1N1CCC(N2Cc3ccccc3N(Cc3nccnc3C(F)(F)F)C2=O)CC1` [Example 38, 3-Fluoro-2-{4-[2-oxo-1-(3-trifluoromethyl-pyrazin-2-ylmethyl)-1,4-dihydro-2H-quinazolin-3-yl]-piperidin-1-yl}-benzonitrile], for which the concentration for half-maximal inhibition (IC50) was 0.211 µM.

With `Cc1cccc(Cl)c1N1CCC(N2Cc3ccccc3N(Cc3ccccc3C(F)(F)F)C2=O)CC1` [Example 79, 3-[1-(2-Chloro-6-methyl-phenyl)-piperidin-4-yl]-1-(2-trifluoromethyl-benzyl)-3,4-dihydro-1H-quinazolin-2-one], the IC50 turned out to be 0.057 µM.

In the case of `COc1cccc(F)c1N1CC[C@@H](N2Cc3cccc(OC)c3N(Cc3ccccc3C(F)(F)F)C2=O)C1` [Example 11, 3-[(R)-1-(2-Fluoro-6-methoxy-phenyl)-pyrrolidin-3-yl]-8-methoxy-1-(2-trifluoromethyl-benzyl)-3,4-dihydro-1H-quinazolin-2-one], the IC50 turned out to be 0.219 µM.

Take `O=C1N(Cc2ccccc2C(F)(F)F)c2ccccc2CN1C1CCN(c2c(F)cccc2OC(F)(F)F)CC1` [Example 78, 3-[1-(2-Fluoro-6-trifluoromethoxy-phenyl)-piperidin-4-yl]-1-(2-trifluoromethyl-benzyl)-3,4-dihydro-1H-quinazolin-2-one]: the IC50 was 0.08 µM.

Turning to `Cc1cccc(F)c1N1CCC(N2Cc3ccccc3N(Cc3ccccc3OCC#N)C2=O)CC1` [Example 55, (2-{3-[1-(2-Fluoro-6-methyl-phenyl)-piperidin-4-yl]-2-oxo-3,4-dihydro-2H-quinazolin-1-ylmethyl}-phenoxy)-acetonitrile], the IC50 was determined as 0.512 µM.

For `Cc1cccc(F)c1N1CCC(N2Cc3ccccc3N(Cc3nccnc3C(C)C)C2=O)CC1` [Example 62, 3-[1-(2-Fluoro-6-methyl-phenyl)-piperidin-4-yl]-1-(3-isopropyl-pyrazin-2-ylmethyl)-3,4-dihydro-1H-quinazolin-2-one], the IC50 worked out at 0.038 µM.

In the case of `Cc1cccc(F)c1N1CCC(N2Cc3ccccc3N(Cc3nccnc3C(F)(F)F)C2=O)CC1` [Example 42, 3-[1-(2-Fluoro-6-methyl-phenyl)-piperidin-4-yl]-1-(3-trifluoromethyl-pyrazin-2-ylmethyl)-3,4-dihydro-1H-quinazolin-2-one], the IC50 was 0.063 µM.

In the case of `Cc1cccc(C)c1N1CC[C@H](N2Cc3ccccc3N(Cc3ccccc3C(F)(F)F)C2=O)C1` [Example 14, 3-[(S)-1-(2,6-Dimethyl-phenyl)-pyrrolidin-3-yl]-1-(2-trifluoromethyl-benzyl)-3,4-dihydro-1H-quinazolin-2-one], the IC50 worked out at 0.627 µM.

Consider `COc1ccccc1CN1C(=O)N(C2CCN(c3c(C)cccc3F)CC2)Cc2ccccc21` [Example 37, 3-[1-(2-Fluoro-6-methyl-phenyl)-piperidin-4-yl]-1-(2-methoxy-benzyl)-3,4-dihydro-1H-quinazolin-2-one], for which the IC50 came out at 0.138 µM.

Take `COc1nccnc1CN1C(=O)N(C2CCN(c3c(F)cccc3C#N)CC2)Cc2ccccc21` [Example 39, 3-Fluoro-2-{4-[1-(3-methoxy-pyrazin-2-ylmethyl)-2-oxo-1,4-dihydro-2H-quinazolin-3-yl]-piperidin-1-yl}-benzonitrile]: the IC50 turned out to be 1.05 µM.

On to `CC(=O)OCCOc1ccccc1CN1C(=O)N(C2CCN(c3c(C)cccc3F)CC2)Cc2ccccc21` [Example 48, Acetic acid 2-(2-{3-[1-(2-fluoro-6-methyl-phenyl)-piperidin-4-yl]-2-oxo-3,4-dihydro-2H-quinazolin-1-ylmethyl}-phenoxy)-ethyl ester], for which the IC50 was 0.298 µM.

`Cc1cccc(F)c1N1CCC(N2Cc3ccccc3N(Cc3ccccc3OC(F)(F)F)C2=O)CC1` [Example 74, 3-[1-(2-Fluoro-6-methyl-phenyl)-piperidin-4-yl]-1-(2-trifluoromethoxy-benzyl)-3,4-dihydro-1H-quinazolin-2-one]: the IC50 is 0.017 µM.

`Cc1cccc(F)c1N1CCC(N2Cc3ccccc3N(Cc3cncnc3C(C)C)C2=O)CC1` [Example 63, 3-[1-(2-Fluoro-6-methyl-phenyl)-piperidin-4-yl]-1-(4-isopropyl-pyrimidin-5-ylmethyl)-3,4-dihydro-1H-quinazolin-2-one]: the half-inhibitory concentration (IC50) was 0.061 µM.

Turning to `Cc1nn(C)c(N2CCC(N3Cc4ccccc4N(Cc4ccccc4C(F)(F)F)C3=O)CC2)c1C#N` [Example 72, 1,3-Dimethyl-5-{4-[2-oxo-1-(2-trifluoromethyl-benzyl)-1,4-dihydro-2H-quinazolin-3-yl]-piperidin-1-yl}-1H-pyrazole-4-carbonitrile], the IC50 was 2.66 µM.

Regarding `CCOc1ccccc1CN1C(=O)N(C2CCN(c3c(C)cccc3F)CC2)Cc2ccccc21` [Example 46, 1-(2-Ethoxy-benzyl)-3-[1-(2-fluoro-6-methyl-phenyl)-piperidin-4-yl]-3,4-dihydro-1H-quinazolin-2-one], the IC50 came out at 0.035 µM.

As to `Cc1cccc(F)c1N1CCC(N2Cc3ccnnc3N(Cc3ccccc3C(F)(F)F)C2=O)CC1` [Example 41, 6-[1-(2-Fluoro-6-methyl-phenyl)-piperidin-4-yl]-8-(2-trifluoromethyl-benzyl)-5,8-dihydro-6H-pyrimido[4,5-c]pyridazin-7-one], the IC50 was 0.109 µM.

In the case of `Cc1cccc(F)c1N1CCC(N2Cc3ccccc3N(Cc3ccccc3Cl)C2=O)CC1` [Example 75, 1-(2-Chloro-benzyl)-3-[1-(2-fluoro-6-methyl-phenyl)-piperidin-4-yl]-3,4-dihydro-1H-quinazolin-2-one], the IC50 worked out at 0.055 µM.

With `Cc1ccnc(C)c1N1CC[C@@H](N2Cc3ccccc3N(Cc3ccccc3C(F)(F)F)C2=O)C1` [Example 32, 3-[(R)-1-(2,4-Dimethyl-pyridin-3-yl)-pyrrolidin-3-yl]-1-(2-trifluoromethyl-benzyl)-3,4-dihydro-1H-quinazolin-2-one], the IC50 is 0.28 µM.
